Data published in patent US10213470B2, “Method for treating spinocerebellar ataxias” (NATIONAL TAIWAN NORMAL UNIVERSITY, priority 2015, dated 2019).

Legend:
TNF-α = TNF-α secretion in LPS-stimulated RAW 264.7 macrophages (ELISA); format: cell-based, Mouse; settings: 50 μM, 8 h pre-treatment, LPS 1 μg/mL 20 h
Protocol: (§1) Human 293 ATXN3/Q75-GFP cells were cultured in Dulbecco's modified Eagle's medium (DMEM) containing 10% fetal bovine serum (FBS), 5 μg/mL blasticidin, and 100 μg/mL hygromycin (InvivoGen). Human neuroblastoma SH-SY5Y cells (ATCC No. CRL-2266) were cultured in DMEM F12 supplemented with 10% FBS. Mouse RAW 264.7 macrophages and BV-2 microglia were cultured in DMEM containing 10% FBS. Cells were all cultured in a 37° C. incubator containing 5% CO2.
(§2) The anti-inflammatory activity of SK Tang was examined using LPS-stimulated RAW 264.7 macrophage and BV-2 microglia. RAW 264.7 cells (10^6) were cultured in 6-well plates for 20 h and pre-treated with celecoxib, which is a nonsteroidal anti-inflammatory drug (named as Cele. in FIGS. 4A-4D) (50 μM) or SK Tang (0.5-2 mg/mL) for 8 h. Next, cells were stimulated by LPS (1 μg/mL) for 20 h. LPS-induced secretions of NO, TNF-α, IL-1β, and IL-6 in RAW 264.7 cells were then determined using Griess reagent or ELISA assay.
(§3) To normalize data, the relative NO/TNF-α/IL-1β/IL-6 level in LPS-stimulated cells is set as 100%. As shown in FIGS. 4A-4D, the exposure of RAW 264.7 cells to LPS results in significant secretions of NO, TNF-α, IL-1β, and IL-6 after 24 h incubation (1-12% vs. 100%, P<0.001). […]

NO = NO secretion in LPS-stimulated RAW 264.7 macrophages (Griess reagent); format: cell-based, Mouse; settings: 50 μM, 8 h pre-treatment, LPS 1 μg/mL 20 h
Protocol: as §1, §2, §3

IL-6 = IL-6 secretion in LPS-stimulated RAW 264.7 macrophages (ELISA); format: cell-based, Mouse; settings: 50 μM, 8 h pre-treatment, LPS 1 μg/mL 20 h
Protocol: as §1, §2, §3

IL-1β = IL-1β secretion in LPS-stimulated RAW 264.7 macrophages (ELISA); format: cell-based, Mouse; settings: 50 μM, 8 h pre-treatment, LPS 1 μg/mL 20 h
Protocol: as §1, §2, §3

[1] = system: ATXN3/Q75 aggregation in 293 ATXN3/Q75-GFP cells; test: ATXN3/Q75 aggregation analysis by high-content analysis in 293 ATXN3/Q75-GFP cells; format: cell-based, Human; settings: at 100 nM; 8 h pre-treatment, then doxycycline and oxaliplatin 6 days
Protocol: as §1
293 ATXN3/Q75-GFP cells were cultured in 96-well (2×10^4/well) plates for 24 h and treated with different concentrations of suberoylanilide hydroxamic acid (SAHA, Cayman Chemical) (100 nM), Paeonia lactiflora, Glycyrrhiza uralensis, or Shao Yao Kan Tsao Tang (SK Tang) (0.01-10 μg/mL) for 8 h. Next, doxycycline (10 μg/mL, BD) and oxaliplatin (5 μM, Sigma) were added for 6 days. Cells were then stained with Hoechst 33342 (0.1 μg/mL, Sigma-Aldrich). Aggregation was then analyzed by high-content analysis (HCA) system (ImageXpressMICRO, Molecular Devices). The histone deacetylase inhibitor SAHA, known to reduce SDS-insoluble polyQ aggregates, was included for comparison.
To normalize data, the relative aggregation level in untreated cells is set as 100%. […] Good aggregation-inhibitory potential can be seen from Paeonia lactiflora (75-78% at 1-10 μg/mL), Glycyrrhiza uralensis (73-85% at 0.01-1 μg/mL), and SK Tang (79-84% at 0.01-10 μg/mL). […]

Compound | TNF-α level relative to LPS-stimulated cells (100%) (TNF-α) [%] | NO level relative to LPS-stimulated cells (100%) (NO) [%] | IL-6 level relative to LPS-stimulated cells (100%) (IL-6) [%] | IL-1β level relative to LPS-stimulated cells (100%) (IL-1β) [%] | ATXN3/Q75 aggregation relative to untreated cells (100%) [1] [%]
Cc1ccc(-c2cc(C(F)(F)F)nn2-c2ccc(S(N)(=O)=O)cc2)cc1 [celecoxib] | 23 | 39 | 29 | 20 | 
O=C(CCCCCCC(=O)Nc1ccccc1)NO [SAHA, suberoylanilide hydroxamic acid] |  |  |  |  | 85
